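In this assay, cells in 96-well plates receive the compound at five concentrations for 48 hours. Endpoints are linearly interpolated between the surrounding concentrations. At the TGI there is no net growth.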

Holding throughout (experiment): inhibition of tumour cell growth, NCI panel, 48 h
Experiment [1] has as its system SR leukemia.
The subject of experiment [2] is KM12 colon.
For experiment [3], the system named is RPMI-8226 leukemia.
In experiment [4] the test system is SF-295 CNS.
The test system of experiment [5] is PC-3 prostate.
Experiment [6] concerns OVCAR-8 ovarian.
Experiment [7] deals with CAKI-1 renal.
For experiment [8], the system named is IGROV1 ovarian.
Experiment [9] relates to RXF 393 renal.
In experiment [10] the test system is OVCAR-3 ovarian.
In experiment [11] the test system is A549 NSCLC.
Experiment [12] relates to SK-MEL-5 melanoma.
Experiment [13] concerns NCI-H23 lung.
For experiment [14], the system named is HOP-92 NSCLC.
Experiment [15] has as its system UACC-257 melanoma.

Consider `COc1ccc(NC2=NCCO2)c2ccccc12`, for which the TGI in [1], in experiment [2], in experiment [3], in experiment [4], in [5] and in experiment [6] was > 10 µM throughout. Besides, the TGI in experiment [7], in experiment [8], in experiment [9], in [10], in experiment [11] and in [12] was > 10 µM each time.

Regarding `CSC(=NCCN=C(NS(=O)(=O)c1ccc(Cl)cc1)SC)NS(=O)(=O)c1ccc(Cl)cc1`, the TGI in [1], in experiment [3], in experiment [4], in experiment [5], in [6] and in [7] was > 100 µM each time. For the same molecule, the TGI in experiment [8] was > 100 µM; in experiment [13], > 100 µM; in experiment [10], > 100 µM; in experiment [14], 58 µM; in experiment [15], > 100 µM.

`CCOC(=O)CCC(NC(=O)OCc1ccccc1)C(=O)NC(CCC(=O)OCC)C(=O)NC(CCC(=O)OCC)C(=O)NC(CCC(=O)OCC)C(=O)NC(CCC(=O)OCC)C(=O)OCC` (stereo not given): the TGI in [1], in [2], in [3], in [4], in experiment [5] and in experiment [6] was > 100 µM each time. The TGI in experiment [7], in experiment [8], in [9], in experiment [13], in [15] and in [11] was > 100 µM throughout. Besides, the TGI in [12] was > 100 µM.

`COc1nc(=O)n(C2CC(N=[N+]=[N-])C(CO)O2)cc1C` (stereo not given): the TGI in [1], in [2], in [4], in experiment [5], in [6] and in experiment [8] was > 100 µM throughout. Also, the TGI in experiment [13], in experiment [10], in experiment [14], in experiment [15], in [11] and in experiment [12] was > 100 µM in each case.

As for `S=C1C=C(c2ccccc2)Sc2ccccc2N1`, the TGI in [1], in experiment [2], in [3], in [4], in experiment [5] and in [6] was > 100 µM in each case. Also, the TGI in experiment [7], in experiment [8], in [9], in [13], in experiment [10] and in experiment [15] was > 100 µM in each case. The TGI in [11] and in [12] was > 100 µM in each case.

As for `O=C(NCc1ccccc1)c1cnc(Cl)cn1`, the TGI in [1] was 69.8 µM; in experiment [2], > 100 µM; in experiment [3], > 100 µM; in experiment [4] it was > 100 µM; in experiment [6], > 100 µM; in [7] it was 33 µM. Further, the TGI in experiment [8] was > 100 µM; in experiment [9], > 100 µM; in [13] it was 87.4 µM; in experiment [10], > 100 µM; in [14], 55 µM; in experiment [15], > 100 µM. The TGI in experiment [11] and in experiment [12] was > 100 µM in each case.

Take `CC(=O)c1cn(-c2ccc(Cl)cc2)c(=O)c2c(N)n[nH]c12`: the TGI in experiment [1], in experiment [2], in experiment [3], in experiment [4], in [5] and in experiment [6] was > 100 µM in each case. Also, the TGI in [7], in experiment [8], in [9], in experiment [13], in experiment [15] and in [12] was > 100 µM in each case.

As for `O=C(/C=C/c1ccc(Cl)c(Cl)c1)Oc1ccc(/C=C2\CCCCC2=O)cc1`, the TGI in [1], in [2], in [3], in [4], in experiment [5] and in experiment [6] was > 100 µM throughout. Further, the TGI in experiment [7], in experiment [8], in experiment [13], in [10], in experiment [14] and in experiment [15] was > 100 µM each time. Also, the TGI in experiment [11] and in experiment [12] was > 100 µM throughout.

For the molecule `CC1(C)CC(=O)c2c(nc3ccc4ccccc4c3c2-c2ccc(NC(=O)CCCCC(=O)Nc3ccc(-c4c5c(nc6ccc7ccccc7c46)CC(C)(C)CC5=O)cc3)cc2)C1`, the TGI in [1], in experiment [2], in experiment [3], in experiment [4], in experiment [5] and in experiment [6] was > 100 µM each time. The TGI in experiment [7], in experiment [8], in experiment [13], in [10], in [14] and in [15] was > 100 µM throughout. In addition, the TGI in experiment [11] and in experiment [12] was > 100 µM each time.

Consider `CCN(CC)CCNc1ccc(C)c2sc3ccc(O)cc3c(=O)c12`, for which the TGI in experiment [1] was determined as 0.981 µM; in [2], 3.39 µM; in experiment [3], 4.95 µM; in experiment [4], 1.98 µM; in experiment [6], 3.2 µM; in [7], 21.8 µM. Moreover, the TGI in experiment [8] was found to be 5.19 µM; in experiment [9], 5.82 µM; in experiment [13], 14 µM; in experiment [10], 4.4 µM; in [14], 7.17 µM; in experiment [15], 2.99 µM. The values for the TGI in [11] and in experiment [12] were 1.91 µM and 2.3 µM, respectively.

The values above are taken from PubChem BioAssay (NCI).
